Counter-ions that a name gives are not always drawn.
Assays:
β3 -adrenergic receptor = molecular target: T1, β3 -adrenergic receptor (Rattus norvegicus, UniProt P26255); assay: Lipolysis (β3-effect): stimulation of adipocyte lipolysis, glycerol release; assay type: cell-based; conditions: rat epididymal adipocytes, 30 minutes, 37° C.; concentration giving 50% of the maximum rate of lipolysis of that compound
T1 construct: Rat epididymal fat pads are excised and placed in 0.9% saline; from tissue; host or cells: rat epididymal fat pads, collagenase-isolated adipocytes
Protocol: (§1) Selectivity of a compound is determined using the following procedures.
The β3 -effect of the compounds is determined by their ability to stimulate adipocyte lipolysis. Rat epididymal fat pads are excised and placed in 0.9% saline. Four grams of tissue is transferred to a flask with 20 ml of aerated KrebsHenseleit bicarbonate (KHB) buffer containing 3% fatty acid-free bovine serum albumin to which 75 mg of crude bacterial collagenase (Worthington) has been added. The tissue is incubated for about 45 minutes at 37° C. with gentle shaking. The cells are then washed three times with two volumes of KHB buffer, filtered through two layers of gauze, and brought to a final volume of 80 ml with KHB buffer. One-ml-aliquots of the cell suspension is added to plastic test tubes containing the appropriate additions of vehicle or compound. The cells are gassed for 1 minute with 95% O2 -5% CO2, capped, and incubated at 37° C. with continuous shaking for a total of 30 minutes. The reaction is stopped by adding 0.1 ml of 30 % perchloric acid and 0.1 ml of chloroform. […] The amount of glycerol generated from the hydrolysis of endogenous triglycerides is determined in a coupled-enzyme spectrophotometric assay. […] The amount of NADH generated, which is proportional to the amount of glycerol, is determined by the increase in absorbance at 340 nm. […]

β1 -adrenergic receptor [1] = molecular target: T2, β1 -adrenergic receptor (Rattus norvegicus, UniProt P18090); assay: Heart Binding (β1): binding assay with membranes from rat heart; conditions: rat heart membranes, [^125 I]iodo-cyanopindolol, 1 hour
T2 construct: membranes from rat heart; from tissue; host or cells: rat heart membranes
Protocol: as §1
(§2) Binding assays for β1 -effect are carried out by the use of membranes from rat heart, and β2 -effect by the use of membranes from rat lung by the method described in Neve, et. al., J. Pharmacol. Exp. Ther., 1985, 235, 657-664 with the following exceptions:
(§3) 1. the incubation volume is 0.5 ml,
(§4) 2. the incubation time is 1 hour,
(§5) 3. the radioligand is [^125 I]iodo-cyanopindolol,
(§6) 4. (--) - isoproterenol (50 μM) is used to define […], and
(§7) 5. the filters are washed at 4° C.

β1 -adrenergic receptor [2] = assay: as above; conditions: β3 lipolysis vs β1 heart binding
Protocol: as §1, §2, §3, §4, §5, §6, §7

β2 [3] = molecular target: T3, β2 (Rattus norvegicus, UniProt P10608); assay: Lung Binding (β2): binding assay with membranes from rat lung; conditions: rat lung membranes, [^125 I]iodo-cyanopindolol, 1 hour
T3 construct: membranes from rat lung; from tissue; host or cells: rat lung membranes
Protocol: as §1, §2, §3, §4, §5, §6, §7

β2 [4] = assay: as above; conditions: printed β3; Table 1 indicates β2 (lung binding)
Protocol: as §1, §2, §3, §4, §5, §6, §7

T2 sequence (P18090 whole entry): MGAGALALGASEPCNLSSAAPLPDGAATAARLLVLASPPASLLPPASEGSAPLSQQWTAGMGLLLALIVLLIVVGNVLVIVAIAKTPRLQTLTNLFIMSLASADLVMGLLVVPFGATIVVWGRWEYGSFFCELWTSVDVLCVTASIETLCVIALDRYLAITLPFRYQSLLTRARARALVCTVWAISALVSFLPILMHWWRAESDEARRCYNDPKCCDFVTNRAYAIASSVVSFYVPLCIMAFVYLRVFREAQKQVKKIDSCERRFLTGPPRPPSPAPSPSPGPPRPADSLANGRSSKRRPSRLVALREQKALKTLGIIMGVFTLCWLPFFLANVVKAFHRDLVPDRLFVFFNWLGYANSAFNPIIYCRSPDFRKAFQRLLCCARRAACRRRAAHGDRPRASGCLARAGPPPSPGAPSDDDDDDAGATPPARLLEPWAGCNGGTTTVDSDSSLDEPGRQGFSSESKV
T1 sequence (P26255 whole entry): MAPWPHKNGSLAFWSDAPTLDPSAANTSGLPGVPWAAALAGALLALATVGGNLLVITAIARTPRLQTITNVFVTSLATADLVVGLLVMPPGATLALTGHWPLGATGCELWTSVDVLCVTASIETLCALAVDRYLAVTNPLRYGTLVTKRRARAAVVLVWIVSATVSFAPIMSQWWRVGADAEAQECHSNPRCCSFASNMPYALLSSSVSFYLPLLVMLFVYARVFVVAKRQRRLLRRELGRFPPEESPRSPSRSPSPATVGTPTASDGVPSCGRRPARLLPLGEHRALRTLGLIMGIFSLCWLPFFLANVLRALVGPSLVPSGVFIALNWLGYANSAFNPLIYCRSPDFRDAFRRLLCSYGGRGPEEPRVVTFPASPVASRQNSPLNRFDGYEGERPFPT
T3 sequence (P10608 whole entry): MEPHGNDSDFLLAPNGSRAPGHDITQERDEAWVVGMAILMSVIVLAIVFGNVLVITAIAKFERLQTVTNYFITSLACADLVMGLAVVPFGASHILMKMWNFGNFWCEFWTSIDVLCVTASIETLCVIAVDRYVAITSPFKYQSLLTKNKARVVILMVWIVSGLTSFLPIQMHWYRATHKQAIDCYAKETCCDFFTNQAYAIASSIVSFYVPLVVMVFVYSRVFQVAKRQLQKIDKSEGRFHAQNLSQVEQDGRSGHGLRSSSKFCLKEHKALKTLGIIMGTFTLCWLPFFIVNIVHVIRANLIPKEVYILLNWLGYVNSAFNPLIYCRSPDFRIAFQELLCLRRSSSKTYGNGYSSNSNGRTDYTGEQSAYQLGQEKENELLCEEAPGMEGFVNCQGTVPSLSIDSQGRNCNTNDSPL

C[C@H](Cc1ccc2c(c1)OC(C(=O)O)(C(=O)O)O2)NCC(O)COc1cccc2ccccc12 (mixture of isomers) [Example 1, (R,R) and (S,R)-5-[2-[[2-Hydroxy-3-(1-naphthalenyloxy)propyllamino]propyl-1,3-benzodioxole-2,2-dicarboxylic acid, disodium salt]
EC50 (β3 -adrenergic receptor): 264 nM
IC50 (β1 -adrenergic receptor [1]): 1520 nM
selectivity for the β3 -adrenergic receptor over the β1 -adrenergic receptor (β1 -adrenergic receptor [2]): shows selectivity
IC50 (β2 [3]): 360 nM
selectivity when compared to the β3 -receptor (β2 [4]): not selective
